Assay results reported in ChEMBL document CHEMBL5113376, “Antimalarial application of quinones: A recent update” (Eur J Med Chem, 2021).
One block for each compound: values may come before it.

Legend:
Plasmodium falciparum [1] = assay: Antimalarial activity against Plasmodium falciparum K14 incubated for 42 hrs in presence of 3H-hypoxanthine by top-count microbeta counter analysis; format: functional, organism-based
Plasmodium falciparum [2] = assay: Antiplasmodial activity against Plasmodium falciparum K1; format: functional, organism-based
Plasmodium berghei = assay: In vivo antiplasmodial activity against Chloroquine susceptible Plasmodium berghei ANKA infected in CD-1 mouse assessed as decrease in parasitaemia at 30 to 50 mg/kg/day, ip relative to control; format: functional; design: scale not given: the % may be the effect or the level left; conditions: dose 30-50 mg/kg/day
Plasmodium falciparum [3] = assay: Antimalarial activity against Plasmodium falciparum Dd2 treated for 48 hrs followed by hypoxanthine addition; format: functional, organism-based; conditions: Dd2, 48 h
Plasmodium falciparum [4] = assay: Antimalarial activity against Plasmodium falciparum W2 incubated for 24 hrs; format: functional, organism-based; conditions: for IC50: Plasmodium falciparum, W2, 24 h
Plasmodium falciparum [5] = assay: Antimalarial activity against chloroquine sensitive Plasmodium falciparum D10 incubated for 72 hrs by spectrophotometric analysis; format: functional, organism-based; conditions: D10, 72 h
Plasmodium falciparum [6] = assay: Antimalarial activity against chloroquine resistant Plasmodium falciparum W2 incubated for 72 hrs by spectrophotometric analysis; format: functional, organism-based; conditions: W2, 72 h
[7] = Cytotoxicity against HMEC-1 cells treated for 72 hrs by MTT assay; format: toxicity, cell-based; conditions: human
Plasmodium falciparum [8] = assay: Antiplasmodial activity against chloroquine sensitive Plasmodium falciparum F-32 Tanzania incubated for 48 hrs; format: functional, organism-based
Plasmodium falciparum [9] = assay: Antiplasmodial activity against Plasmodium falciparum 3D7 incubated for 48 hrs; format: functional, organism-based; conditions: 3D7, 48 h
Plasmodium falciparum [10] = assay: Antiplasmodial activity against Plasmodium falciparum Dd2 incubated for 48 hrs; format: functional, organism-based; conditions: Dd2, 48 h
Plasmodium falciparum [11] = assay: Antimalarial activity against Plasmodium falciparum 3D7 infected in human erythrocytes; format: functional, organism-based; conditions: 3D7, Erythrocyte
Plasmodium falciparum [12] = assay: Antiplasmodial activity against Chloroquine resistant Plasmodium falciparum FcB1 incubated for 48 hrs; format: functional, organism-based; conditions: FcB1, 48 h

SMILES: CN(C)c1ccc(N2C(=O)C(Oc3ccc(Cl)cc3Cl)C2c2ccc3c(c2)C(=O)c2ccccc2C3=O)cc1 (centres undefined)
IC50 (Plasmodium falciparum [1]): 48 µM

SMILES: O=C(O)c1cc2c(s1)C(=O)C1=C(C2=O)S(=O)(=O)C=CN1
IC50 (Plasmodium falciparum [2]): 35 nM

SMILES: O=C1c2ccccc2C(=O)c2cc(C3C(Oc4ccc5ccccc5c4)C(=O)N3c3cccc4ccccc34)ccc21 (centres undefined)
IC50 (Plasmodium falciparum [1]): 39 µM

SMILES: O=C1c2ccccc2C(=O)c2cc(C3C(Oc4ccccc4)C(=O)N3c3cccc4ccccc34)ccc21 (centres undefined)
IC50 (Plasmodium falciparum [1]): 41 µM

SMILES: CC(=O)OC1=C(CC=C(C)C)C(=O)c2ccccc2C1=O
IC50 (Plasmodium falciparum [4]): 2.3 µM | IC100 (Plasmodium falciparum [4]; time 24 hrs): 4.7 µM

SMILES: CCC1=C(NC(=O)C(C)(C)C)C(=O)C2=C(NCCS2(=O)=O)C1=O
IC50 (Plasmodium falciparum [5]): 390 nM | IC50 (Plasmodium falciparum [6]): 580 nM | IC50 at 72 h [7]: 1.6 µM

SMILES: O=C(O)c1ccc2c(n1)C(=O)C1=C(C2=O)S(=O)(=O)C=CN1
IC50 (Plasmodium falciparum [2]): 600 nM

SMILES: CC1(C)OC2=C(CC1I)C(=O)C(=O)c1ccccc12 (centres undefined)
IC50 (Plasmodium falciparum [4]): 15.8 µM

SMILES: O=C(O)c1ccc2c(n1)C(=O)C1=C(C2=O)S(=O)(=O)CCN1 [ACIDIATHIAZONE A]
IC50 (Plasmodium falciparum [2]): 3300 nM

SMILES: CCC1=C(NC(=O)C(C)(C)C)C(=O)C2=C(C1=O)S(=O)(=O)CCN2
IC50 (Plasmodium falciparum [5]): 6150 nM | IC50 (Plasmodium falciparum [6]): 6310 nM | IC50 at 72 h [7]: > 100 µM

SMILES: COC1=C(Cc2ccccc2)C(=O)C2=C(NCCS2(=O)=O)C1=O
IC50 (Plasmodium falciparum [5]): 600 nM | IC50 (Plasmodium falciparum [6]): 700 nM | IC50 at 72 h [7]: 17.6 µM

SMILES: COc1ccc(N2C(=O)C(Oc3ccc(Cl)cc3)C2c2ccc3c(c2)C(=O)c2ccccc2C3=O)cc1 (centres undefined)
IC50 (Plasmodium falciparum [1]): 38 µM

SMILES: CCC1=C(OC)C(=O)C2=C(C1=O)S(=O)(=O)CCN2
IC50 (Plasmodium falciparum [5]): 2450 nM | IC50 (Plasmodium falciparum [6]): 2370 nM | IC50 at 72 h [7]: > 100 µM

SMILES: CC1=C(Cc2ccc(C(F)(F)F)cc2)C(=O)c2ccccc2C1=O
Activity (Plasmodium berghei): 20.7%

SMILES: COc1ccc(N2C(=O)C(Oc3ccccc3)C2c2ccc3c(c2)C(=O)c2ccccc2C3=O)cc1 (centres undefined)
IC50 (Plasmodium falciparum [1]): 27 µM

SMILES: COc1cc2c(cc1O)[C@H]1COC3=C(C(=O)c4ccccc4C3=O)[C@H]1O2
IC50 (Plasmodium falciparum [12]): ≥ 10000 nM

SMILES: COc1ccc(N2C(=O)C(Oc3ccc(Cl)cc3Cl)C2c2ccc3c(c2)C(=O)c2ccccc2C3=O)cc1 (centres undefined)
IC50 (Plasmodium falciparum [1]): 47 µM

SMILES: O=C1c2ccccc2C(=O)c2cc(C3C(Oc4ccc(Cl)cc4)C(=O)N3c3cccc4ccccc34)ccc21 (centres undefined)
IC50 (Plasmodium falciparum [1]): 45 µM

SMILES: CN(C)c1ccc(N2C(=O)C(Oc3ccc(Cl)cc3)C2c2ccc3c(c2)C(=O)c2ccccc2C3=O)cc1 (centres undefined)
IC50 (Plasmodium falciparum [1]): 21 µM

SMILES: COc1cc2c(cc1O)[C@H]1COC3=C(C(=O)c4ccccc4C3=O)[C@H]1OC2
IC50 (Plasmodium falciparum [12]): 30 nM

SMILES: CC1(C)OC2=C(CC1I)C(=O)c1ccccc1C2=O (centres undefined)
IC50 (Plasmodium falciparum [4]): 19.5 µM

SMILES: CN(C)c1ccc(N2C(=O)C(Oc3ccccc3)C2c2ccc3c(c2)C(=O)c2ccccc2C3=O)cc1 (centres undefined)
IC50 (Plasmodium falciparum [1]): 9 µM

SMILES: COc1cc2c(cc1O)CO[C@@H]1C3=C(OC[C@H]21)C(=O)c1ccccc1C3=O
IC50 (Plasmodium falciparum [12]): 40 nM

SMILES: O=C1C2=C(C(=O)c3ccccc31)[C@H]1OCc3cc4c(cc3[C@H]1CO2)OCO4
IC50 (Plasmodium falciparum [12]): 280 nM

Continued, in another order:

IC50 (Plasmodium falciparum [3]): 46 nM
SMILES: CC1=C(Cc2ccc([N+](=O)[O-])cc2)C(=O)c2ccccc2C1=O
Activity (Plasmodium berghei): 20.7%

IC50 (Plasmodium falciparum [8]): 1200 nM
SMILES: O=C1C=C(OCc2cn(-c3ccccc3)nn2)C(=O)c2ccccc21

IC50 (Plasmodium falciparum [9]): 1500 nM | IC50 (Plasmodium falciparum [10]): 1200 nM
SMILES: Cc1cc2c(o1)C(=O)c1ccccc1C2=O

IC50 (Plasmodium falciparum [8]): 3300 nM
SMILES: O=C1C=C(OCc2cn(/C=C/c3ccc(C(F)(F)F)cc3)nn2)C(=O)c2ccccc21

IC50 (Plasmodium falciparum [11]): 13.7 µM
SMILES: O=C1C(O)=C(Cc2ccc([N+](=O)[O-])cc2)C(=O)c2ccccc21

IC50 (Plasmodium falciparum [11]): 15.2 µM
SMILES: CC(C)(C)CC1=C(O)C(=O)c2ccccc2C1=O

IC50 (Plasmodium falciparum [9]): 1200 nM | IC50 (Plasmodium falciparum [10]): 1600 nM
SMILES: C/C=C/C1=C(O)C(=O)c2ccccc2C1=O

IC50 (Plasmodium falciparum [3]): 54 nM
SMILES: CC1=C(Cc2ccc(C(C)(C)C)cc2)C(=O)c2ccccc2C1=O
Activity (Plasmodium berghei): 20.7%

IC50 (Plasmodium falciparum [11]): 16 µM
SMILES: COc1ccc(CC2=C(O)C(=O)c3ccccc3C2=O)cc1

IC50 (Plasmodium falciparum [9]): 2400 nM | IC50 (Plasmodium falciparum [10]): 220 nM
SMILES: CCCC/C=C/C1=C(O)C(=O)c2ccccc2C1=O

IC50 (Plasmodium falciparum [3]): 46 nM
SMILES: CC1=C(Cc2ccc(F)cc2)C(=O)c2ccccc2C1=O
Activity (Plasmodium berghei): 20.7%

IC50 (Plasmodium falciparum [3]): 55 nM
SMILES: CC1=C(Cc2ccc(O)cc2)C(=O)c2ccccc2C1=O
Activity (Plasmodium berghei): 20.7%

IC50 (Plasmodium falciparum [9]): 400 nM | IC50 (Plasmodium falciparum [10]): 1800 nM
SMILES: CCc1cc2c(o1)C(=O)c1ccccc1C2=O
